# According to patent publication US20170050957A1, “4-AMINO-6-(HETEROCYCLIC)PICOLINATES AND 6-AMINO-2-(HETEROCYCLIC)PYRIMIDINE-4-CARBOXYLATES AND THEIR USE AS HERBICIDES” (Dow AgroSciences LLC, priority 2013, published 2017):
# Where two headings read alike, the source gives them in different places.
# Assays:
# [1] = system: Key Broadleaf Weed and Crop Species; test: Post-emergent Test II herbicidal activity (Table 15); format: in vivo; conditions: post-emergence, 336 h, 14 d; for pest or weed control at 35 g/ha: 35 g ai/ha; for pest or weed control at 70 g/ha: 70 g ai/ha; for pest or weed control at 140 g/ha: 140 g ai/ha
# Summary of the method: (§1)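 Visual injury rating (0 = none, 100 = complete kill) taken 14 d after treatment, relative to untreated plants. Compounds in acetone/DMSO with crop oil concentrate and Triton X-155 were track-sprayed at 187 L/ha onto seedlings at the first-second true leaf stage.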
# [2] = system: Key Grass and Sedge Weeds as well as Grass Crops; test: Post-emergent Test II herbicidal activity (Table 16); format: in vivo; conditions: post-emergence, 336 h, 14 d; for pest or weed control at 35 g/ha: 35 g ai/ha; for pest or weed control at 70 g/ha: 70 g ai/ha; for pest or weed control at 140 g/ha: 140 g ai/ha
# Summary of the method: as §1
# [3] = Abutilon theophrasti, velvetleaf (Abutilon theophrasti), read-out: Visual Growth Reduction (%) 14 Days After Application, ABUTH
# [4] = Amaranthus retroflexus, redroot pigweed (Amaranthus retroflexus), read-out: Visual Growth Reduction (%) 14 Days After Application, AMARE
# [5] = Brassica napus, oilseed rape, canola (Brassica napus), read-out: Visual Growth Reduction (%) 14 Days After Application, BRSNN
# [6] = Chenopodium album, lambsquarters (Chenopodium album), read-out: Visual Growth Reduction (%) 14 Days After Application, CHEAL
# [7] = Euphorbia heterophylla, wild poinsettia (Euphorbia heterophylla), read-out: Visual Growth Reduction (%) 14 Days After Application, EPHHL
# [8] = Helianthus annuus, sunflower (Helianthus annuus), read-out: Visual Growth Reduction (%) 14 Days After Application, HELAN
# [9] = Cyperus esculentus, yellow nutsedge (Cyperus esculentus), read-out: Visual Growth Reduction (%) 14 Days After Application, CYPES
# [10] = Echinochloa crus-galli, barnyardgrass (Echinochloa crus-galli), read-out: Visual Growth Reduction (%) 14 Days After Application, ECHCG
# [11] = Oryza sativa, rice (Oryza sativa), read-out: Visual Growth Reduction (%) 14 Days After Application, ORYSA
# [12] = Triticum aestivum, wheat, spring (Triticum aestivum), read-out: Visual Growth Reduction (%) 14 Days After Application, TRZAS
# [13] = Zea mays, maize, corn (Zea mays), read-out: Visual Growth Reduction (%) 14 Days After Application, ZEAMX
# [14] = Setaria faberi, giant foxtail (Setaria faberi), read-out: Visual Growth Reduction (%) 14 Days After Application, SETFA
Structure (SMILES),melting point [°C],"pest or weed control at 35 g/ha [1, 3] [%]","pest or weed control at 70 g/ha [1, 3] [%]","pest or weed control at 140 g/ha [1, 3] [%]","pest or weed control at 35 g/ha [1, 4] [%]","pest or weed control at 70 g/ha [1, 4] [%]","pest or weed control at 140 g/ha [1, 4] [%]","pest or weed control at 35 g/ha [1, 5] [%]","pest or weed control at 70 g/ha [1, 5] [%]","pest or weed control at 140 g/ha [1, 5] [%]","pest or weed control at 35 g/ha [1, 6] [%]","pest or weed control at 70 g/ha [1, 6] [%]","pest or weed control at 140 g/ha [1, 6] [%]","pest or weed control at 35 g/ha [1, 7] [%]","pest or weed control at 70 g/ha [1, 7] [%]","pest or weed control at 140 g/ha [1, 7] [%]","pest or weed control at 35 g/ha [1, 8] [%]","pest or weed control at 70 g/ha [1, 8] [%]","pest or weed control at 140 g/ha [1, 8] [%]","pest or weed control at 35 g/ha [2, 9] [%]",further results
COC(=O)c1nc(-c2ccc(Cl)c3occc23)cc(N)c1Cl [Compound 2.19],158 to 159,95 to 100,95 to 100,95 to 100,95 to 100,95 to 100,95 to 100,0 to 29,60 to 74,60 to 74,95 to 100,95 to 100,95 to 100,0 to 29,0 to 29,0 to 29,0 to 29,75 to 84,75 to 84,0 to 29,"pest or weed control at 70 g/ha [2, 9]: 0 to 29%; pest or weed control at 140 g/ha [2, 9]: 0 to 29%; pest or weed control at 35 g/ha [2, 10]: 0 to 29%; pest or weed control at 70 g/ha [2, 10]: 0 to 29%; pest or weed control at 140 g/ha [2, 10]: 0 to 29%; pest or weed control at 35 g/ha [2, 11]: 0 to 29%; pest or weed control at 70 g/ha [2, 11]: 0 to 29%; pest or weed control at 140 g/ha [2, 11]: 0 to 29%; pest or weed control at 35 g/ha [2, 12]: 0 to 29%; pest or weed control at 70 g/ha [2, 12]: 0 to 29%; pest or weed control at 140 g/ha [2, 12]: 0 to 29%; pest or weed control at 35 g/ha [2, 13]: 0 to 29%; pest or weed control at 70 g/ha [2, 13]: 0 to 29%; pest or weed control at 140 g/ha [2, 13]: 0 to 29%"
COC(=O)c1nc(-c2ccc(Cl)c3ccoc23)cc(N)c1Cl [Compound 2.25],169,75 to 84,75 to 84,95 to 100,95 to 100,95 to 100,95 to 100,0 to 29,45 to 59,75 to 84,95 to 100,95 to 100,95 to 100,0 to 29,75 to 84,85 to 94,0 to 29,30 to 44,85 to 94,0 to 29,"pest or weed control at 70 g/ha [2, 9]: 30 to 44%; pest or weed control at 140 g/ha [2, 9]: 75 to 84%; pest or weed control at 35 g/ha [2, 10]: 0 to 29%; pest or weed control at 70 g/ha [2, 10]: 0 to 29%; pest or weed control at 140 g/ha [2, 10]: 0 to 29%; pest or weed control at 35 g/ha [2, 11]: 0 to 29%; pest or weed control at 70 g/ha [2, 11]: 0 to 29%; pest or weed control at 140 g/ha [2, 11]: 0 to 29%; pest or weed control at 35 g/ha [2, 14]: 0 to 29%; pest or weed control at 70 g/ha [2, 14]: 0 to 29%; pest or weed control at 140 g/ha [2, 14]: 0 to 29%; pest or weed control at 35 g/ha [2, 12]: 0 to 29%; pest or weed control at 70 g/ha [2, 12]: 0 to 29%; pest or weed control at 140 g/ha [2, 12]: 0 to 29%; pest or weed control at 35 g/ha [2, 13]: 0 to 29%; pest or weed control at 70 g/ha [2, 13]: 0 to 29%; pest or weed control at 140 g/ha [2, 13]: 45 to 59%"
